Data on 1 compound can be found in US20240207302A1, “ANTIVIRAL COMPOUNDS, METHODS FOR THE MANUFACTURING OF COMPOUNDS, ANTIVIRAL PHARMACEUTICAL COMPOSITION, USE OF THE COMPOUNDS AND METHOD FOR THE ORAL TREATMENT OF CORONAVIRUS INFECTION AND RELATED DISEASES THEREOF” (priority 2021, published 2024).

Like-named read-outs stand apart in the source and are kept apart here.

The nature of this data set: Pharmacokinetics of MB-905 in plasma of the rat. Type of data set: in vivo. The procedure: The pharmacokinetic assay was performed by using mice of the CDI strain (20-30 g) or rat Sprague Dawley (250-300 g) of both sexes from the Center of Innovation and Preclinical Studies (CIEnP) vivarium. […] After oral […] administration, blood was collected at times of 0.25, 0.5, 1, 2, 4, 8 and 24, while after intravenous administration the collection times were 0.083, 0.25, 0.5, 1, 2 and 4 hours. […] The pharmacokinetic parameters evaluated were: AUC (AUC 0-T or, AUC 0-∞), Cmax, Tmax, T1/2, volume of distribution, clearance, elimination constant and bioavailability.

Setting [1] is: both sexes, Sprague Dawley, rat, plasma, po, 10 mg/kg, 10 mg/kg (v.o.).
The mark [2] stands for this setting: both sexes, Sprague Dawley, rat, plasma, po, 30 mg/kg, 30 mg/kg (v.o.).

Consider `c1coc(CNc2ncnc3[nH]cnc23)c1` [MB-905, kinetin], for which the F stood at 100% (3 mg/kg (i.v.)); 98.8% (10 mg/kg (v.o.), 10 mg/kg); 64.7% (30 mg/kg (v.o.)). The Cmax is, setting by setting: (3 mg/kg (i.v.), 3 mg/kg) 123.61 ng/mL; (10 mg/kg (v.o.), 10 mg/kg) 549.96 ng/mL; (both sexes, Sprague Dawley, rat, plasma, iv, 3 mg/kg, 3 mg/kg (i.v.), read-out: Cmax) 99.4 ng/mL; (both sexes, Sprague Dawley, rat, plasma, po, 10 mg/kg, 10 mg/kg (v.o.), read-out: Cmax) 545 ng/mL. Also, the Vz runs as follows: (3 mg/kg (i.v.), 3 mg/kg) 10.40 L/kg; (10 mg/kg (v.o.)) 30.37 L/kg; (30 mg/kg (v.o.)) 109.18 L/kg. This compound registered a CL (10 mg/kg (v.o.)) of 241.09 mL/min/kg and a CL (30 mg/kg (v.o.), 30 mg/kg) of 330.57 mL/min/kg. The compound further displayed a Ke (10 mg/kg (v.o.)) of 0.47 h⁻¹ and a Ke (30 mg/kg (v.o.)) of 0.18 h⁻¹. The T1/2 (10 mg/kg (v.o.), 10 mg/kg) worked out at 1.45 h. For the same compound, where the note is “both sexes, Sprague Dawley, rat, plasma, iv, 3 mg/kg, 3 mg/kg (i.v.), read-out: Vz”, the Vd amounted to 13.4 L/kg. For the same compound, the exposure (AUC) is, setting by setting: under setting [1], 762 ng·h/mL; under setting [2], 1500 ng·h/mL. Also, the AUC(0-t) was determined as 666 ng·h/mL under setting [1] and 1500 ng·h/mL under setting [2]. In addition, under setting [1], the Tmax stood at 0.25 h. For the same compound, the half-life under setting [1] is 1.46 h.

The Cmax is the maximum level reached in the sampled fluid or tissue. The term Vz denotes a proportionality between amount in the body and measured concentration, not a real space. A low value points to little distribution into tissue. A word on the AUC: it is concentration integrated over time. The AUC(0-t) is the area under the concentration-time curve up to a stated or last time point. Lower therefore signals low exposure. In general, Tmax refers to the time at which the peak concentration occurs. In general, half-life refers to the time needed for the level to fall by half in the phase considered. Low readings indicate fast loss, high ones slow loss.
